Data taken from patent US5250679A, “Nonpeptidyl platelet aggregation inhibitors having specificity for the GPIIb III receptor” (Genentech, Inc., priority 1992, dated 1993).
Counter-ions that a name gives are not always drawn.

Molecular target: T1, GP IIb IIIa (Homo sapiens, UniProt P05106+P08514)
T1 construct: from tissue; host or cells: outdated human platelets
Assay: Fibrinogen-GP IIb IIIa Receptor ELISA Binding Assay (Fg/IIbIIIa)
Conditions: Example 29, Cmpd # 1-105; read-out: IC50 Fg/IIbI
Description: Briefly, microtiter plates are coated with fibrinogen (10 mg/ml) and then blocked with TACTS buffer containing 0.5% bovine serum albumin (BSA). […] After another wash a goat anti-mouse IgG conjugated to horseradish peroxidase is added. […] The reaction is stopped with 1N sulfuric acid and the absorbance at 492 nm is recorded. […] Outdated human platelets are washed 3 times with 10 mM tris-HCl, 150 mM NaCl (TBS), 1 mM EDTA, pH 7.5, and centrifuged at 2000×g to pellet cells. […] The supernatant fraction is collected and the supernatant is loaded onto a concanavalin-A column, previously equilibrated in TBS, 1 mM Ca2 Cl2, 0.1% Triton, 0.05% NaN3 and eluted with 0.2M a-methylmannoside. Fractions are pooled and loaded onto a heparin-agarose column. The flowthrough is collected and concentrated on an Amicon YM 30 filter to a volume of approximately 5-10 ml. The concentrate is then applied to an S-300 column (500 ml) and 6 ml fractions are collected. The GP IIb IIIa containing fractions are collected, pooled, and stored at -80° C. […] The precipitate is spun down in appropriate size bottles at 2000×g. The supernatant is decanted and the precipitate resuspended in 150 mM NaCl (approximately 50% of the original volume). […] The suspension is spun down and the precipitate is resuspended in Tris-saline in a minimal volume (approximately 5% of the original volume). Any remaining insoluble material is spun down at 2000 rpm in a Sorval type centrifuge and the fibrinogen supernatant is decanted and dialyzed overnight at 4° C. against Tris-saline. Characterization of the fibrinogen is by the Bradford protein assay, SDS-PAGE, and/or Western blotting using well known standard procedures. Briefly, 96 well plates are coated (Type Nunc 1 MaxisorpTM) with 10 mg/ml purified fibrinogen ([…]), and allowed to stand overnight at 4° C. […] The plates are again washed three times with PBS/Tween and then […] of sample in TNCNT is added. The mixture is incubated for 15 minutes at room temperature on a plate shaker. […] Fifty ml of this diluted GP IIb IIIa is then added to each well and incubated on a plate shaker at room temperature. After one hour, the plates are washed four times with PBS/Tween and 100 ml of a polyclonal or monoclonal antibody specific for GP IIIa such as AP3 (1 mg/ml) (See e.g. […] After a one hour incubation at room temperature on a plate shaker, the samples are washed 4 times with PBS/Tween. […] The color develops within about 3 to 20 minutes and the reaction is stopped with 100 ml 1M H2 SO4. The optical density at 492 nm vs 405 nm is recorded and IC50 values are determined.

T1 sequence (P08514 32-887 limits assumed): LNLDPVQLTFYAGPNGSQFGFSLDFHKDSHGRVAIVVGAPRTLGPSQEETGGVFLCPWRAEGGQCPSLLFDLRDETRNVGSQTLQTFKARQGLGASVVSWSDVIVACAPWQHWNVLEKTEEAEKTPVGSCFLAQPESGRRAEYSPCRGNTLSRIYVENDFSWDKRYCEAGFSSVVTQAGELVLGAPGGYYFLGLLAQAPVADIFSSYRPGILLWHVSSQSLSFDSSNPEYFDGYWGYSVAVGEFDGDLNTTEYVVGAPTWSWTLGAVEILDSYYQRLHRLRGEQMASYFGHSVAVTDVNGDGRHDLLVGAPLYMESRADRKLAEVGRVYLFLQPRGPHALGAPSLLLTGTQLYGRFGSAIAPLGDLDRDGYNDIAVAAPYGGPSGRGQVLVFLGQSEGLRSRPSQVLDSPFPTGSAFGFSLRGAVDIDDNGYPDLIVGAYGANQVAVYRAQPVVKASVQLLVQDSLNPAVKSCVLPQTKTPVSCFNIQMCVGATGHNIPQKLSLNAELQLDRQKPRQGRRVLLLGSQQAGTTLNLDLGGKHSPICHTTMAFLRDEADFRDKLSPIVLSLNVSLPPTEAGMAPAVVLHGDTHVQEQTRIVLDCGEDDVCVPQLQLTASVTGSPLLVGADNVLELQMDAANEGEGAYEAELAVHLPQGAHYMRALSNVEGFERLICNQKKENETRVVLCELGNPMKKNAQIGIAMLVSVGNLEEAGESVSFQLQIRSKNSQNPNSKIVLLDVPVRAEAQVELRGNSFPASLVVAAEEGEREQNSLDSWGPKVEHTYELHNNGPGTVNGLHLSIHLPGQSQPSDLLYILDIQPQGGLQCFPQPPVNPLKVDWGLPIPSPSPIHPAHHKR
T1 sequence (P08514 891-1039 partner limits assumed): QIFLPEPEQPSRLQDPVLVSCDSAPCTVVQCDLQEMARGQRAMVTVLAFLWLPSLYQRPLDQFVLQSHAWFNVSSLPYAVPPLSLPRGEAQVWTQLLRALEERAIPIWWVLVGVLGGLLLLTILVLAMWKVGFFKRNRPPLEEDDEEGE
T1 sequence (P05106 27-788): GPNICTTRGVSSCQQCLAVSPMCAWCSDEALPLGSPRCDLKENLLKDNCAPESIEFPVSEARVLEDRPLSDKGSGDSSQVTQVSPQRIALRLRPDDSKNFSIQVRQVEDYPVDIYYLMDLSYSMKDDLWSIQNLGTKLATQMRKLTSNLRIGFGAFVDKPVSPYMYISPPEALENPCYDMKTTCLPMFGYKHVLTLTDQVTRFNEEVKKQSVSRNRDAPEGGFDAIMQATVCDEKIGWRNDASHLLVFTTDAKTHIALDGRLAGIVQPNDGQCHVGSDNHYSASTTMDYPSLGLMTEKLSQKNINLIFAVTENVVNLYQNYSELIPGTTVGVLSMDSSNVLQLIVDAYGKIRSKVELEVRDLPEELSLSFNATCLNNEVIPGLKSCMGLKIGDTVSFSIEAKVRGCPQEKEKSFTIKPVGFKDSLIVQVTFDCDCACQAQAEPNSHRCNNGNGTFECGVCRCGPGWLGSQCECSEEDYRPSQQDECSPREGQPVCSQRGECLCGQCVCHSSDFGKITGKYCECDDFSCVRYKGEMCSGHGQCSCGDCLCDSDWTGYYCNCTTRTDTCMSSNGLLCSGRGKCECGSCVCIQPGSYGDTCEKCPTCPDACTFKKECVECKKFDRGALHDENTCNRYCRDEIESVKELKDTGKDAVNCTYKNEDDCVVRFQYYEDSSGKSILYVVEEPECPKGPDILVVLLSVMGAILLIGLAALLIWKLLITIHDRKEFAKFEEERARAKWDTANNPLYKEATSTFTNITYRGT

IC50	SMILES
0.014 µM	N=C(N)NCCCCCc1ccc2c(c1)C(=O)N(CCC(=O)O)CC(=O)N2Cc1ccc(C(F)(F)F)cc1 [Cmpd 93, 1-(p-trifluoromethylbenzyl)-4-(2-carboxyethyl)-7-(5-guanidinopentyl)-3,4-dihydro-1H-1,4-benzodiazepine-2,5-dione trifluoroacetate]
0.009 µM	NCCCCCCc1ccc2c(c1)C(=O)N(CCC(=O)O)CC(=O)N2Cc1cccc(Oc2ccccc2)c1 [Cmpd 94, 1-(m-phenoxybenzyl)-4-(2-carboxyethyl)-7-(6-aminohexyl)-3,4-dihydro-1H-1,4-benzodiazepine-2,5-dione trifluoroacetate]
0.108 µM	NCCCCCc1ccc2c(c1)C(=O)N(CCC(=O)O)CC(=O)N2Cc1cccc(Oc2ccccc2)c1 [Cmpd 95, 1-(m-phenoxybenzyl)-4-(2-carboxyethyl)-7-(5-aminopentyl)-3,4-dihydro-1H-1,4-benzodiazepine-2,5-dione trifluoroacetate]
0.186 µM	NCCCCCc1ccc2c(c1)C(=O)N(CCC(=O)O)CC(=O)N2Cc1ccc(C(F)(F)F)cc1 [Cmpd 96, 1-(p-trifluoromethylbenzyl)-4-(2-carboxyethyl)-7-(5-aminopentyl)-3,4-dihydro-1H-1,4-benzodiazepine-2,5-dione trifluoroacetate]
0.13 µM	NCCCC#Cc1ccc2c(c1)C(=O)N(CCC(=O)O)CC(=O)N2Cc1ccc(F)cc1F [Cmpd 97]
0.024 µM	N=C(N)NCCCC#Cc1ccc2c(c1)C(=O)N(CCC(=O)O)CC(=O)N2Cc1ccc(F)cc1F [Cmpd 98]
0.027 µM	NCCCCC#Cc1ccc2c(c1)C(=O)N(CCC(=O)O)CC(=O)N2Cc1ccc(F)cc1F [Cmpd 99]
0.025 µM	N=C(N)NCCCCC#Cc1ccc2c(c1)C(=O)N(CCC(=O)O)CC(=O)N2Cc1ccc(F)cc1F [Cmpd 100]
0.2 µM	NCCCCCc1ccc2c(c1)C(=O)N(CCC(=O)O)CC(=O)N2Cc1ccc(F)cc1F [Cmpd 101]
0.016 µM	N=C(N)NCCCCCc1ccc2c(c1)C(=O)N(CCC(=O)O)CC(=O)N2Cc1ccc(F)cc1F [Cmpd 102]
0.021 µM	NCCCCCCc1ccc2c(c1)C(=O)N(CCC(=O)O)CC(=O)N2Cc1ccc(F)cc1F [Cmpd 103, 1-(2,4-difluorophenyl)methyl-4-(2-carboxyethyl)-7-(6-aminohexyl)-3,4-dihydro-1H-1,4-benzodiazapine-2,5-dione]
0.038 µM	N=C(N)NCCCCCCc1ccc2c(c1)C(=O)N(CCC(=O)O)CC(=O)N2Cc1ccc(F)cc1F [Cmpd 104]
8.5 µM	CC(=O)NCCCCCCc1ccc2c(c1)C(=O)N(CCC(=O)O)CC(=O)N2Cc1ccc(Cl)cc1 [Cmpd 105]

Same assay, conditions: Examples 29 and 30, Cmpd # tables; read-out: IC50 (μM) Fg/IIbIIIa

SMILES	IC50
NCCCCCc1ccc2c(c1)C(=O)N(CCC(=O)O)CC(=O)N2CCCCC(=O)O [Cmpd 132]	0.931 µM
NCCCCCc1ccc2c(c1)C(=O)N(CCC(=O)O)CC(=O)N2Cc1ccc(C(=O)O)cc1 [Cmpd 136]	0.176 µM
CN1C(=O)CN(CCC(=O)O)C(=O)c2cc3cc(C#CCN)ccc3cc21 [Cmpd 137, 1-methyl-4-(2-carboxyethyl)-8-(3-amino-1-propynyl)-3,4-dihydro 1H-1,4-napthodiazepine-2,4-dione trifluoracetate]	0.351 µM
CN1C(=O)CN(CCC(=O)O)C(=O)c2cc3c(cc21)CCC(CCCN)C3 (stereo not shown) [Cmpd 141, 1-Methyl-4-(carboxyethyl)-8-(3-amino-1-propyl)-3,4,7,8,9,10-hexahydrohydro-1H-1,4-naphthodiazepine-2,5-dione]	1.8 µM
NCCCC#Cc1ccc2c(c1)C(=O)N(CCC(=O)O)CCO2 [Cmpd 144]	12 µM
N=C(N)NCCCC#Cc1ccc2c(c1)C(=O)N(CCC(=O)O)CCO2 [Cmpd 145]	4 µM
NCCCCCc1ccc2c(c1)C(=O)N(CCC(=O)O)CCO2 [Cmpd 146]	80 µM
N=C(N)NCCCCCc1ccc2c(c1)C(=O)N(CCC(=O)O)CCO2 [Cmpd 147]	3 µM
NCCCC#Cc1ccc2c(c1)C(=O)N(CCC(=O)O)CC(Cc1ccccc1)O2 (stereo not shown) [Cmpd 148]	5.9 µM
N=C(N)NCCCC#Cc1ccc2c(c1)C(=O)N(CCC(=O)O)CC(Cc1ccccc1)O2 (stereo not shown) [Cmpd 149]	0.823 µM
NCCCCCCCCOc1ccc2c(c1)C(=O)N(CCC(=O)O)CCC2 [Cmpd 151, 2-(2-carboxyethyl)-8-(8-aminooctyloxy)-2,3,4,5-tetrahydro-1H-2-benzazepin-1-one trifluoroacetate]	> 100 µM
N=C(N)NCCCCCCCCOc1ccc2c(c1)C(=O)N(CCC(=O)O)CCC2 [Cmpd 152, 2-(2-carboxyethyl)-8-(8-guanadinooctyloxy)-2,3,4,5-tetrahydro-1H-2-benzazepin-1-one trifluoroacetate]	50 µM
NCCCC#Cc1ccc2c(c1)C(=O)N(CCC(=O)O)CCC2 [Cmpd 153, 2-(2-carboxyethyl)-8-(5-aminopentynyl)-2,3,4,5-tetrahydro-1H-2-benzazepin-1-one trifluoroacetate]	> 100 µM
N=C(N)NCCCC#Cc1ccc2c(c1)C(=O)N(CCC(=O)O)CCC2 [Cmpd 154, 2-(2-carboxyethyl)-8-(5-guanidinopentynyl)-2,3,4,5-tetrahydro-1H-2-benzazepin-1-one trifluoroacetate]	20 µM
NCCCCCc1ccc2c(c1)C(=O)N(CCC(=O)O)CCC2 [Cmpd 155]	> 100 µM
N=C(N)NCCCCCc1ccc2c(c1)C(=O)N(CCC(=O)O)CCC2 [Cmpd 156]	~100 µM
N=C(N)NCCCc1cccc(C(=O)NCCC(=O)O)c1 [Cmpd 158]	2.3 µM

More lines, now with the values ahead:

IC50	SMILES
0.068 µM	NCCCC#Cc1ccc2c(c1)C(=O)N(CCC(=O)O)CC(=O)N2Cc1cccc(NC(=O)CN)c1 [Cmpd 106]
0.019 µM	NCCCCCCc1ccc2c(c1)C(=O)N(CCC(=O)O)CC(=O)N2Cc1ccc(NC(=O)CCN)cc1 [Cmpd 118]
0.013 µM	N=C(N)NCCCCCCc1ccc2c(c1)C(=O)N(CCC(=O)O)CC(=O)N2Cc1ccc(NC(=O)CCNC(=N)N)cc1 [Cmpd 119]
0.024 µM	NCCCCCCc1ccc2c(c1)C(=O)N(CCC(=O)O)CC(=O)N2Cc1cccc(CCCCN)c1 [Cmpd 120]
0.02 µM	N=C(N)NCCCCCCc1ccc2c(c1)C(=O)N(CCC(=O)O)CC(=O)N2Cc1cccc(CCCCNC(=N)N)c1 [Cmpd 121]
0.064 µM	NCCCCCCc1ccc2c(c1)C(=O)N(CCC(=O)O)CC(=O)N2CCCCCN [Cmpd 125]
0.04 µM	N=C(N)NCCCCCCc1ccc2c(c1)C(=O)N(CCC(=O)O)CC(=O)N2CCCCCNC(=N)N [Cmpd 126]
0.024 µM	NCCCCCCc1ccc2c(c1)C(=O)N(CCC(=O)O)CC(=O)N2Cc1ccc(N)cc1 [Cmpd 128]
0.014 µM	N=C(N)NCCCCCc1ccc2c(c1)C(=O)N(CCC(=O)O)CC(=O)N2CCCCC(=O)O [Cmpd 131]
0.016 µM	N=C(N)NCCCCCc1ccc2c(c1)C(=O)N(CCC(=O)O)CC(=O)N2Cc1ccc(C(=O)O)cc1 [Cmpd 133]
0.019 µM	N=C(N)NCCCCCCc1ccc2c(c1)C(=O)N(CCC(=O)O)CC(=O)N2Cc1ccc(C(=O)O)cc1 [Cmpd 134]
0.008 µM	NCCCCCCc1ccc2c(c1)C(=O)N(CCC(=O)O)CC(=O)N2Cc1ccc(C(=O)O)cc1 [Cmpd 135, 1-(4-carboxyphenyl)methyl-4-(2-carboxyethyl)-7-(6-aminohexyl)-3,4-dihydro-1H-1,4-benzodiazapine-2,5-dione]
0.009 µM	CN1C(=O)CN(CCC(=O)O)C(=O)c2cc3cc(C#CCNC(=N)N)ccc3cc21 [Cmpd 138, 1-Methyl-4-(carboxyethyl)-8-(3-guanidino-1-propynyl)-3,4-dihydro-1H-1,4-naphthodiazepine-2,5-dione]
0.153 µM	CN1C(=O)CN(CCC(=O)O)C(=O)c2cc3cc(CCCCN)ccc3cc21 [Cmpd 139]
0.069 µM	CN1C(=O)CN(CCC(=O)O)C(=O)c2cc3cc(CCCCNC(=N)N)ccc3cc21 [Cmpd 140]
0.068 µM	CN1C(=O)CN(CCC(=O)O)C(=O)c2cc3c(cc21)CCC(CCCNC(=N)N)C3 (stereo not shown) [Cmpd 142]
0.048 µM	CN1C(=O)CN(CCC(=O)O)C(=O)c2cc3c(cc21)CCC(CCCCN)C3 (stereo not shown) [Cmpd 143]
0.119 µM	NCCOc1ccc(-c2ccc3c(c2)C(=O)N(CCC(=O)O)CC(Cc2ccccc2)O3)cc1 (stereo not shown) [Cmpd 150, trifluoroacetate]
0.137 µM	N=C(N)c1ccc(COc2ccc3c(c2)C(=O)N(CCC(=O)O)CCC3)cc1 [Cmpd 157, 2-(2-carboxyethyl)-8-(4-amidinobenzyloxy)-2,3,4,5-tetrahydro-1H-2-benzazepin-1-one trifluoroacetate]
